Test results published in ChEMBL document CHEMBL2375267, “A comprehensive review on synthesis and designing aspects of coumarin derivatives as monoamine oxidase inhibitors for depression and Alzheimer's disease” (Bioorg Med Chem, 2013).
pIC50: −log10 of the molar value. Each block holds one molecule with its values, some of them ahead of it.

Key:
[1] = Inhibition of mouse brain monoamine oxidase using kynuramine as substrate by fluorometric analysis
[2] = molecular target: T1, Amine oxidase [flavin-containing] A (Mus musculus, UniProt Q64133); assay: Inhibition of mouse brain MAO-A
T1 sequence (Q64133 whole entry): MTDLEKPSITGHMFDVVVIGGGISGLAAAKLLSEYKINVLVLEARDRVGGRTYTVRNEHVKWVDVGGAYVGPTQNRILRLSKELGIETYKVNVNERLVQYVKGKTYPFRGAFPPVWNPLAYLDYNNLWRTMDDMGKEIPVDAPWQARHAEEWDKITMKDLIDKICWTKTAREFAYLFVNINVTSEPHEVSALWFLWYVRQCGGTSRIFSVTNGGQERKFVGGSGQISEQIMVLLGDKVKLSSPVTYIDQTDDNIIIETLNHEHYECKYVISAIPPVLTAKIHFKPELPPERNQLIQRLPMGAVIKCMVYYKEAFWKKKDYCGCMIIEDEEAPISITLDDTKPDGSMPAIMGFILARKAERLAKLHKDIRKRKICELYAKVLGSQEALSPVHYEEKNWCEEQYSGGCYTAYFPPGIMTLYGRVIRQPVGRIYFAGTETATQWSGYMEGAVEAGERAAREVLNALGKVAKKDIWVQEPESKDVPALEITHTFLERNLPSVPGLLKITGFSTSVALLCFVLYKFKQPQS

[3] = molecular target: T2, Amine oxidase [flavin-containing] B (Mus musculus, UniProt Q8BW75); assay: Inhibition of mouse brain MAO-B
T2 sequence (Q8BW75 whole entry): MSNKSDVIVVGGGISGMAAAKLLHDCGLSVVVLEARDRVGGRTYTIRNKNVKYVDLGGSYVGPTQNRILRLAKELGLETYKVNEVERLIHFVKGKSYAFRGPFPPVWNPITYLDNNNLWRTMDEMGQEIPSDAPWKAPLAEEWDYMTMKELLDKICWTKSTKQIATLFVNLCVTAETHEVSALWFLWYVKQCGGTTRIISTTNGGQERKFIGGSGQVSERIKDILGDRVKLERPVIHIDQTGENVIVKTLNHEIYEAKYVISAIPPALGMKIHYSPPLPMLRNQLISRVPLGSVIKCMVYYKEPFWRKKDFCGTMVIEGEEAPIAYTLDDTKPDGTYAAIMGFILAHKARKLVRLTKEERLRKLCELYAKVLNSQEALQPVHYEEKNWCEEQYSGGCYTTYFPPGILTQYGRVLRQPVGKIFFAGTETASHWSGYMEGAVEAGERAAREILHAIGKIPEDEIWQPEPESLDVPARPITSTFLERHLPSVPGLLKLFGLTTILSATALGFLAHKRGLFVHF

[4] = Inhibition of mouse brain monoamine oxidase
[5] = species on record: Homo sapiens; assay: Selectivity index, ratio of pIC50 for MAO-B (unknown origin) to pIC50 for MAO-A (unknown origin)
[6] = molecular target: T3, Amine oxidase [flavin-containing] B (Homo sapiens, UniProt P27338); assay: Inhibition of MAO-B (unknown origin)
T3 sequence (P27338 whole entry): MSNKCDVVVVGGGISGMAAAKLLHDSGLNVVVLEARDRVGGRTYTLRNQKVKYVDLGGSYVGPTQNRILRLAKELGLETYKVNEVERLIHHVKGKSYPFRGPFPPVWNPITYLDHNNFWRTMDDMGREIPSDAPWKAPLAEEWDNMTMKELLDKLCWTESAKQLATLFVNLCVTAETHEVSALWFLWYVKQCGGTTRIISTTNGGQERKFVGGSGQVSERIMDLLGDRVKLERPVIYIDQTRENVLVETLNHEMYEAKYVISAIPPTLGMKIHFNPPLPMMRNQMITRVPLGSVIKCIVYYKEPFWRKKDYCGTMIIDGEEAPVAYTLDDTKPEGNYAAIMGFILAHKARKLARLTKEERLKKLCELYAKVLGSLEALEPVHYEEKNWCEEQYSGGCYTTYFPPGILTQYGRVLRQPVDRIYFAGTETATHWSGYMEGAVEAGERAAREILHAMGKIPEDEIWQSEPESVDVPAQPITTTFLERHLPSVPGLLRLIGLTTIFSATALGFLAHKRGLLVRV

[7] = molecular target: T4, Amine oxidase [flavin-containing] A (Homo sapiens, UniProt P21397); assay: Inhibition of MAO-A (unknown origin)
T4 sequence (P21397 whole entry): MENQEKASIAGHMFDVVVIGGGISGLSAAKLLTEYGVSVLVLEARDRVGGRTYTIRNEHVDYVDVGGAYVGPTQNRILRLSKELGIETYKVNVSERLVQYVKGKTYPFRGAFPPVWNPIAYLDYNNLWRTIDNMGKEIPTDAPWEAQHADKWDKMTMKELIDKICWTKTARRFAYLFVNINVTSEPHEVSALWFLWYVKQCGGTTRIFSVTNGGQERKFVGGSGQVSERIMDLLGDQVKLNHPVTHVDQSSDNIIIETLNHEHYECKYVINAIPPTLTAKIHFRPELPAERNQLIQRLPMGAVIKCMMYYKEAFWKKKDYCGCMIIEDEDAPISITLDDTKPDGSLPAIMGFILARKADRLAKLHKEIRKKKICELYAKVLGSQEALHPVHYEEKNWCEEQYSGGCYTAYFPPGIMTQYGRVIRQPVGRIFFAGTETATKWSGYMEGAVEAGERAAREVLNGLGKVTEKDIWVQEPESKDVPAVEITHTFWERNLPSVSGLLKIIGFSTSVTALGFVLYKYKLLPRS

[8] = species on record: Homo sapiens; assay: Selectivity ratio for MAO-A (unknown origin) over MAO-B (unknown origin)

pIC50 [1]: 4.49
SMILES: COc1cc2oc(=O)ccc2cc1O [ISOSCOPOLETIN]

pIC50 [1]: 4.51
SMILES: O=c1ccc2cc(O)c(O)cc2o1 [ESCULETIN]

pIC50 [7]: 4.67
pIC50 [4]: 4.45
SMILES: O=c1ccc2cc3ccoc3cc2o1 [PSORALEN]

pIC50 [2]: 5.24
pIC50 [3]: 4.54
pIC50 [4]: 5.04
SMILES: COc1c(OCC=C(C)C)ccc2ccc(=O)oc12 [LACINARTIN]

pIC50 [1]: 4.35
SMILES: COc1cc2ccc(=O)oc2cc1O [SCOPOLETIN]

Further lines, the molecule ahead of its results:

SMILES: CC(C)=CCC/C(C)=C/COc1ccc2ccc(=O)oc2c1
pIC50 [2]: 10.46
pIC50 [3]: 6.22
pIC50 [4]: 5.77

SMILES: C=C(C)[C@H](O)CC/C(C)=C/COc1ccc2ccc(=O)oc2c1
pIC50 [2]: 5.89
pIC50 [3]: 6.30
pIC50 [4]: 6.15

SMILES: Cc1ccc2oc(=O)c(C(=O)O)cc2c1
Ratio pIC50 [5]: 2.8
pIC50 [6]: 7.72

SMILES: COc1c2ccoc2cc2oc(=O)ccc12 [BERGAPTEN]
pIC50 [7]: 4.86
pIC50 [4]: 4.86

SMILES: C/C=C(/C)C(=O)O[C@H]1[C@@H](OC(C)=O)c2c(ccc3ccc(=O)oc23)OC1(C)C
pIC50 [4]: 4.56

SMILES: O=C(Cl)c1cc2cc(Cl)ccc2oc1=O
pIC50 [6]: 8.00

SMILES: O=C(O)c1cc2ccccc2oc1=O [COUMARIN-3-CARBOXYLIC ACID]
Ratio pIC50 [5]: 2.94
pIC50 [6]: 7.76

SMILES: CC1(C)OC(/C=C/COc2ccc3ccc(=O)oc3c2)=CC1=O
Selectivity ratio [8]: 850
